Reference: patent US8222404B2, “[1,2,4]Thiadiazin-3-yl acetic acid compound and methods of making the acetic acid compound” (Anadys Pharmaceuticals, Inc., priority 2008, dated 2012)

Tested on: HCV Huh-luc/neo-ET replicon cells
Assay: Luciferase-Based HCV Replicon Assay (EC50 (1b))
Format: cell-based
Settings: 72 hours exposure, luciferase activity
Method in brief: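 Replicon cells seeded, then exposed 24 h later to a compound concentration series in triplicate for 72 h. Luciferase luminescence read; % inhibition vs no-compound control, with 100 nM BILN-2061 as background, used to derive EC50 (1b).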

| SMILES | EC50 (Hepatitis C virus) | EC50 |
| --- | --- | --- |
| CS(=O)(=O)NCc1csc2c1S(=O)(=O)N=C(C1=C(O)[C@@H]3C4CCC(CC4)[C@@H]3N(Cc3ccc(F)cc3Cl)C1=O)N2 [Example 96, N-{3-[(2S,7R)-3-(2-Chloro-4-fluoro-benzyl)-6-hydroxy-4-oxo-3-aza-tricyclo[6.2.2.0^2,7]dodec-5-en-5-yl]-1,1-dioxo-1,4-dihydro-1λ^6-thieno[2,3-e][1,2,4]thiadiazin-7-ylmethyl}-methanesulfonamide] | 20 to 100 nM | – |
| CS(=O)(=O)NCc1csc2c1S(=O)(=O)N=C(C1=C(O)[C@@H]3[C@H]4CC[C@H](C4)[C@@H]3N(CCC3CCC3)C1=O)N2 [Example 26, N-{3-[(1R,2S,7R,8S)-3-(2-Cyclobutyl-ethyl)-6-hydroxy-4-oxo-3-aza-tricyclo[6.2.1.0^2,7]undec-5-en-5-yl]-1,1-dioxo-1,4-dihydro-1λ^6-thieno[2,3-e][1,2,4]thiadiazin-7-ylmethyl}-methanesulfonamide] | 20 to 100 nM | – |
| COc1ccc(CN2C(=O)C(C3=NS(=O)(=O)c4c(CNS(C)(=O)=O)csc4N3)=C(O)C3C4C=CC(C4)C32)c(OC)c1 (racemic) [Example 76, (rac-di-exo)-N-{3-[3-(2,4-Dimethoxy-benzyl)-6-hydroxy-4-oxo-3-aza-tricyclo[6.2.1.0^2,7]undeca-5,9-dien-5-yl]-1,1-dioxo-1,4-dihydro-1λ^6-thieno[2,3-e][1,2,4]thiadiazin-7-ylmethyl}-methanesulfonamide] | > 1000 nM | – |
| CS(=O)(=O)NCc1csc2c1S(=O)(=O)N=C(C1=C(O)C3CCCC3N(Cc3ccc(F)cc3)C1=O)N2 (racemic) [Example 2, (rac-cis)-N-{3-[1-(4-Fluoro-benzyl)-4-hydroxy-2-oxo-2,4a,5,6,7,7a-hexahydro-1H-[1]pyrindin-3-yl]-1,1-dioxo-1,4-dihydro-1λ^6-thieno[2,3-e][1,2,4]thiadiazin-7-ylmethyl}-methanesulfonamide] | 5 to 20 nM | – |
| CS(=O)(=O)NCc1csc2c1S(=O)(=O)N=C(C1=C(O)C3C4CCC(O4)C3NC1=O)N2 (racemic) [Example 83, (rac-di-exo)-N-[3-(6-Hydroxy-4-oxo-11-oxa-3-aza-tricyclo[6.2.1.0^2,7]undec-5-en-5-yl)-1,1-dioxo-1,4-dihydro-1λ^6-thieno[2,3-e][1,2,4]thiadiazin-7-ylmethyl]-methanesulfonamide] | > 1000 nM | – |
| Cc1cc(CN2C(=O)C(C3=NS(=O)(=O)c4c(CNS(C)(=O)=O)csc4N3)=C(O)[C@@H]3C4CCC(CC4)[C@@H]32)ccc1F [Example 52, N-{3-[(2S,7R)-3-(4-Fluoro-3-methyl-benzyl)-6-hydroxy-4-oxo-3-aza-tricyclo[6.2.2.0^2,7]dodec-5-en-5-yl]-1,1-dioxo-1,4-dihydro-1λ^6-thieno[2,3-e][1,2,4]thiadiazin-7-ylmethyl}-methanesulfonamide] | ≤ 5 nM | – |
| CS(=O)(=O)NCc1csc2c1S(=O)(=O)N=C(C1=C(O)C3C4C=CC(C4)C3NC1=O)N2 (racemic) [Example 84, (rac-di-exo)-N-[3-(6-Hydroxy-4-oxo-3-aza-tricyclo[6.2.1.0^2,7]undeca-5,9-dien-5-yl)-1,1-dioxo-1,4-dihydro-1λ^6-thieno[2,3-e][1,2,4]thiadiazin-7-ylmethyl]-methanesulfonamide] | > 1000 nM | – |
| CC(C)(C)CCN1C(=O)C(C2=NS(=O)(=O)c3c(CNS(C)(=O)=O)csc3N2)=C(O)C2C3CCC(C4CC43)C21 (racemic) [Example 25, (rac-di-exo)-N-{3-[3-(3,3-Dimethyl-butyl)-6-hydroxy-4-oxo-3-aza-tetracyclo[6.3.2.0^2,7.0^9,11]tridec-5-en-5-yl]-1,1-dioxo-1,4-dihydro-1λ^6-thieno[2,3-e][1,2,4]thiadiazin-7-ylmethyl}-methanesulfonamide] | – | ≤ 5 nM |
| COc1ccc(CN2C(=O)C(C3=NS(=O)(=O)c4c(CNS(C)(=O)=O)csc4N3)=C(O)C3CCCCCC32)c(OC)c1 (racemic) [Example 79, (rac-cis)-N-{3-[1-(2,4-Dimethoxy-benzyl)-4-hydroxy-2-oxo-2,4a,5,6,7,8,9,9a-octahydro-1H-cyclohepta[b]pyridin-3-yl]-1,1-dioxo-1,4-dihydro-1λ^6-thieno[2,3-e][1,2,4]thiadiazin-7-ylmethyl}-methanesulfonamide] | > 1000 nM | – |
| CS(=O)(=O)NCc1csc2c1S(=O)(=O)N=C(C1=C(O)[C@@H]3C4CCC(CC4)[C@@H]3N(Cc3ccsc3)C1=O)N2 [Example 60, N-[3-((2S,7R)-6-Hydroxy-4-oxo-3-thiophen-3-ylmethyl-3-aza-tricyclo[6.2.2.0^2,7]dodec-5-en-5-yl)-1,1-dioxo-1,4-dihydro-1λ^6-thieno[2,3-e][1,2,4]thiadiazin-7-ylmethyl]-methanesulfonamide] | ≤ 5 nM | – |
| CS(=O)(=O)NCc1csc2c1S(=O)(=O)N=C(C1=C(O)C3C4CCC(CC4)C3N(CCC3CC3)C1=O)N2 (stereo not drawn) [Example 108, N-{3-[3-(2-Cyclopropyl-ethyl)-6-hydroxy-4-oxo-3-aza-tricyclo[6.2.2.0^2,7]dodec-5-en-5-yl]-1,1-dioxo-1,4-dihydro-1λ^6-thieno[2,3-e][1,2,4]thiadiazin-7-ylmethyl}-methanesulfonamide] | 5 to 20 nM | – |
| COc1ccc(CN2C(=O)C(C3=NS(=O)(=O)c4c(CNS(C)(=O)=O)csc4N3)=C(O)[C@@H]3CCC[C@@H]32)c(OC)c1 [Example 77, (4aR,7aS)-N-{3-[1-(2,4-Dimethoxy-benzyl)-4-hydroxy-2-oxo-2,4a,5,6,7,7a-hexahydro-1H-[1]pyrindin-3-yl]-1,1-dioxo-1,4-dihydro-1λ^6-thieno[2,3-e][1,2,4]thiadiazin-7-ylmethyl}-methanesulfonamide] | > 1000 nM | – |
| CC(C)CCN1C(=O)C(C2=NS(=O)(=O)c3c(CNS(C)(=O)=O)csc3N2)=C(O)[C@@H]2CCC[C@@H]21 [Example 128, (4aR,7aS)-N-{3-[4-Hydroxy-1-(3-methyl-butyl)-2-oxo-2,4a,5,6,7,7a-hexahydro-1H-[1]pyrindin-3-yl]-1,1-dioxo-1,4-dihydro-1λ^6-thieno[2,3-e][1,2,4]thiadiazin-7-ylmethyl}-methanesulfonamide] | 20 to 100 nM | – |
| CS(=O)(=O)NCc1csc2c1S(=O)(=O)N=C(C1=C(O)[C@@H]3[C@H]4CC[C@H](C4)[C@@H]3N(CCC3CCCC3)C1=O)N2 [Example 30, N-{3-[(1R,2S,7R,8S)-3-(2-Cyclopentyl-ethyl)-6-hydroxy-4-oxo-3-aza-tricyclo[6.2.1.0^2,7]undec-5-en-5-yl]-1,1-dioxo-1,4-dihydro-1λ^6-thieno[2,3-e][1,2,4]thiadiazin-7-ylmethyl}-methanesulfonamide] | 20 to 100 nM | – |
| COc1ccc(CN2C(=O)C(C3=NS(=O)(=O)c4c(CNS(C)(=O)=O)csc4N3)=C(O)C3C4CCC(O4)C32)c(OC)c1 (racemic) [Example 75, (rac-di-exo)-N-{3-[3-(2,4-Dimethoxy-benzyl)-6-hydroxy-4-oxo-11-oxa-3-aza-tricyclo[6.2.1.0^2,7]undec-5-en-5-yl]-1,1-dioxo-1,4-dihydro-1λ^6-thieno[2,3-e][1,2,4]thiadiazin-7-ylmethyl}-methanesulfonamide] | > 1000 nM | – |
| CS(=O)(=O)NCc1csc2c1S(=O)(=O)N=C(C1=C(O)C3CCCCC3N(Cc3ccc(F)c(F)c3)C1=O)N2 (racemic) [Example 134, (rac-cis)-N-{3-[1-(3,4-Difluoro-benzyl)-4-hydroxy-2-oxo-1,2,4a,5,6,7,8,8a-octahydro-quinolin-3-yl]-1,1-dioxo-1,4-dihydro-1λ^6-thieno[2,3-e][1,2,4]thiadiazin-7-ylmethyl}-methanesulfonamide] | > 1000 nM | – |
| CS(=O)(=O)NCc1csc2c1S(=O)(=O)N=C(C1=C(O)[C@@H]3[C@H]4CC[C@H](C4)[C@@H]3N(Cc3ccc(F)cc3F)C1=O)N2 [Example 49, N-{3-[(1R,2S,7R,8S)-3-(2,4-Difluoro-benzyl)-6-hydroxy-4-oxo-3-aza-tricyclo[6.2.1.0^2,7]undec-5-en-5-yl]-1,1-dioxo-1,4-dihydro-1λ^6-thieno[2,3-e][1,2,4]thiadiazin-7-ylmethyl}-methanesulfonamide] | 20 to 100 nM | – |
| CC(C)CCN1C(=O)C(C2=NS(=O)(=O)c3c(CNS(C)(=O)=O)csc3N2)=C(O)[C@@H]2[C@@H]3CC[C@@H](C3)[C@@H]21 [Example 69, N-{3-[(1S,2S,7R,8R)-6-Hydroxy-3-(3-methyl-butyl)-4-oxo-3-aza-tricyclo[6.2.1.0^2,7]undec-5-en-5-yl]-1,1-dioxo-1,4-dihydro-1λ^6-thieno[2,3-e][1,2,4]thiadiazin-7-ylmethyl}-methanesulfonamide] | 20 to 100 nM | – |
| CS(=O)(=O)NCc1csc2c1S(=O)(=O)N=C(C1=C(O)[C@@H]3CCC[C@@H]3N(CC3CCCCC3)C1=O)N2 [Example 103, (4aR,7aS)-N-[3-(1-Cyclohexylmethyl-4-hydroxy-2-oxo-2,4a,5,6,7,7a-hexahydro-1H-[1]pyrindin-3-yl)-1,1-dioxo-1,4-dihydro-1λ^6-thieno[2,3-e][1,2,4]thiadiazin-7-ylmethyl]-methanesulfonamide] | 20 to 100 nM | – |
| CS(=O)(=O)NCc1csc2c1S(=O)(=O)N=C(C1=C(O)C(Cc3ccccc3)CN(Cc3ccc(F)cc3)C1=O)N2 (racemic) [Example 12, rac-N-{3-[5-Benzyl-1-(4-fluoro-benzyl)-4-hydroxy-2-oxo-1,2,5,6-tetrahydro-pyridin-3-yl]-1,1-dioxo-1,4-dihydro-1λ^6-thieno[2,3-e][1,2,4]thiadiazin-7-ylmethyl}-methanesulfonamide] | > 1000 nM | – |
| CS(=O)(=O)NCc1csc2c1S(=O)(=O)N=C(C1=C(O)C3CCCCCC3N(Cc3ccc(F)c(Cl)c3)C1=O)N2 (racemic) [Example 123, (rac-cis)-N-{3-[1-(3-Chloro-4-fluoro-benzyl)-4-hydroxy-2-oxo-2,4a,5,6,7,8,9,9a-octahydro-1H-cyclohepta[b]pyridin-3-yl]-1,1-dioxo-1,4-dihydro-1λ^6-thieno[2,3-e][1,2,4]thiadiazin-7-ylmethyl}-methanesulfonamide] | 100 to 1000 nM | – |
